# Results published in US11103605B2, “PET-imaging immunomodulators” (BRISTOL-MYERS SQUIBB COMPANY, priority 2016, dated 2021).
# Where “and” joins values, the source holds several entries; their conditions need not be identical. Equal values may be shown once.
# Key:
# [1] = PET imaging of mice bearing bilateral xenograft tumors: hPD-L1(+) tumor; type: in vivo, mouse; settings: mouse, hPD-L1(+) L2987 xenograft tumor, iv, total radioactivity, mean of 4 mice
# Description: (§1) Mice bearing bilateral xenograft tumors were produced by introducing 2×10^6 hPD-L1(+) L2987 human lung carcinoma cells and 4×10^6 hPD-L1(−) HT-29 human colon carcinoma cells subcutaneously on opposite sides of the mouse. Once tumors reached approximately 300 mm^3 (approximately 2-3 weeks after cell implantation), animals were selected for imaging. The body weight and tumor size of each study were measured and recorded on the imaging day before imaging procedure. Mice were placed in an anesthetic induction chamber and 3% isoflurane inhalant anesthesia was delivered in 100% O2 at a rate of 1-1.5 L/min. Once sedated, mice were removed from the induction chamber and placed into a plexiglass 4-chamber mouse hotel (custom-made by BMS-Applied Biotechnology group), while continuing to receive 1-1.5% isoflurane inhalant anesthesia and delivered in 100% O2 at a rate of 2 L/min via the nose-cone. Animal were kept warm using an external standalone temperature regulating unit (M2M Imaging Corp) to prevent hypothermia during imaging. Mouse respiration was continuously monitored during imaging procedures and isoflurane may be adjusted dependent on depth of anesthesia. Mice were then placed into a custom animal holder with capacity for 4 animals, where they remained under anesthesia for the duration of the study. The animal holder was transferred to the microPET® F120™ scanner (Siemens Preclinical Solutions, Knoxville, Tenn.). The axial field of view of this instrument is 7.6 cm. With this limitation, animals were positioned such that the scanning region was from immediately in front of the eyes to approximately the base of the tail. A 10-minute transmission image was first acquired using a ^57Co point source for the purpose of attenuation correction of the final PET images. Following the transmission scan, radiotracer solutions were administered via the previously installed tail vein catheters and a 2 hour emission image was acquired. Injected radiotracer solutions were injected into a total 8 mice (body weight: 22.2±2.0 gram) with tumor volumes 203.0±51.4 mm^3 for HT-29 and 422.9±128.4 mm^3 for L2987 were imaged 16-17 days post cell implantation. Each mouse received a single injection of SC dose of PD-L1 binding macrocyclic peptide 60 mg/kg (N=4) or saline (N=4) 30 minute before the [^18F]labelled macrocyclic PD-L1 peptide (124.0±8.4 μCi, tracer mass: 1.0±0.4 μg/kg) IV injection. Images were reconstructed using a maxiumum a posteriori (MAP) algorithm with attenuation correction using the collected transmission images and corrected for radioisotope decay. In the final images, regions of interest (ROIs) were drawn around the tumor boundary using ASIPro software (Siemens Preclinical Solutions). Time-activity curves were calculated for each ROI to yield a quantitative view of radiotracer within the tumor volume over the course of the 2 hour emission image. For final comparison, individual time-activity curves were normalized based on the injected radiotracer dose for each specific animal. Radiotracer uptake was compared across tumors using the final 10 minutes of each time-activity curve (90-100 minutes post-radiotracer injection).
# [2] = tested on: hPD-L1(+) L2987 human lung carcinoma xenografts; test: as above; type: in vivo, mouse; settings: for SUV in L2987: individual mice
# Description: as §1
# [3] = molecular target: T1, PD-L1 (Homo sapiens, UniProt Q9NZQ7); test: In vitro autoradiography on human lung tumor and xenograft tissue sections; type: binding; settings: 0.25 nM radiotracer, unlabelled peptide 0.1 nM, 1 nM, 10 nM
# T1 construct: Human lung tumor tissues were embedded in OCT and chilled in 2-methylbutane; from tissue; host or cells: human non-small cell lung cancer biopsy sections; L2987 (hPD-L1+) and HT-29 (hPD-L1-) human xenograft sections grown in mice
# Description: Human lung tumor tissues were embedded in OCT and chilled in 2-methylbutane for 2-5 minutes until frozen. Samples were stored in −80° C. degree freezer until use. Human xenograft tissues were also included in the assay. […] Once resulting xenograft tumors reached appropriate size (approx. 200-300 mm^3), mice were anesthetized with 2% isoflurane and sacrificed via cervical dislocation. Fresh tumor tissues were excised, immersed into OCT and chilled in 2-methylbutane for 2-5 minutes until frozen. The tissues were then wrapped in foil/ZIPLOC® bag and stored at −80° C. until use. For all tissues (human lung tumor and xenografts) sections of 5 μm thickness (collected as 2 sections/slide) were cut using a cryostat, thaw-mounted on glass microscope slides, and allowed to air dry for approximately 30 minutes. Blocking studies with cold (unlabelled) peptide at 0.1 nM, 1 nM, and 10 nM respectively. The individual slides, 1 slide per concentration, were transferred to glass slide incubation chambers for incubation. […] Autoradiography signals from tissue-associated radioactivity were quantified from these ROIs. The apparent displacement of the [^18F]labelled macrocyclic PD-L1 peptide radiotracer when compared to the total binding sections was determined for 3 different concentrations (0.1 nM, 1 nM, and 10 nM) of unlabeled peptide in both human lung tumor sections as well as human xenograft sections. […]
# T1 sequence (Q9NZQ7 19-290): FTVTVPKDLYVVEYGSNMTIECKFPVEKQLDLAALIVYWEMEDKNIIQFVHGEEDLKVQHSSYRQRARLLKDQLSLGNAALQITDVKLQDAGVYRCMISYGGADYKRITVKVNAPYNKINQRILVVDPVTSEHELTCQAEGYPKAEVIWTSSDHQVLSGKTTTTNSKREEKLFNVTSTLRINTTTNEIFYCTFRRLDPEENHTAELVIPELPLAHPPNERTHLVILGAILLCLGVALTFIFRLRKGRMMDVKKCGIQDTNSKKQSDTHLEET
structure (smiles),measurement,setting,value
CCCC[C@H]1C(=O)N(C)[C@@H](CCCC)C(=O)N[C@@H](CC(C)C)C(=O)N[C@H](C(=O)NCC(=O)N[C@@H](Cc2cn(CCOCCOCCOCCOc3cccnc3[18F])nn2)C(=O)O)CSCC(=O)N[C@@H](Cc2ccc(O)cc2)C(=O)N(C)[C@@H](C)C(=O)N[C@@H](CC(N)=O)C(=O)N2CCC[C@H]2C(=O)N[C@@H](CN)C(=O)N[C@@H](CC(C)C)C(=O)N2C[C@H](O)C[C@H]2C(=O)N[C@@H](Cc2c[nH]c3ccccc23)C(=O)N[C@@H](CCN)C(=O)N[C@@H](Cc2cn(CC(=O)O)c3ccccc23)C(=O)N1C [[^18F]labelled macrocyclic PD-L1 peptide],SUV,"[1]; 1 ug/kg, saline predose",0.298 SUV
same,SUV,[1]; 60 mg/kg PD-L1 binding macrocyclic peptide predose,0.05 SUV
same,radiotracer uptake in hPD-L1(+) L2987 xenografts relative to hPD-L1(−) HT-29 xenografts,[2]; SC 60 mg/kg PD-L1 binding macrocyclic peptide 30 minutes before radiotracer,0.7 ×
same,radiotracer uptake in hPD-L1(+) L2987 xenografts relative to hPD-L1(−) HT-29 xenografts,[2]; animals receiving only the radiotracer,8.1 ×
same,SUV in L2987,"[2]; 60 mg/kg PD-L1 binding macrocyclic peptide SC 30 min before tracer IV, 60 mg/kg",0.060 and 0.055 and 0.042 and 0.043
same,SUV in L2987,"[2]; saline (0 mg/kg PD-L1 binding macrocyclic peptide) SC 30 min before tracer IV, 90-100 minutes post-radiotracer injection",0.231 and 0.452 and 0.297 and 0.213
same,displacement of radiotracer by unlabelled peptide,[3],dose dependent displacement
